Consider 20 compounds from US20250213555A1, “SUBSTITUTED TETRAHYDROFURAN ANALOGS AS MODULATORS OF SODIUM CHANNELS” (VERTEX PHARMACEUTICALS INCORPORATED, priority 2021, published 2025).

Chain of human Nav 1.8 (Q9Y5Y9 126-399 limits assumed): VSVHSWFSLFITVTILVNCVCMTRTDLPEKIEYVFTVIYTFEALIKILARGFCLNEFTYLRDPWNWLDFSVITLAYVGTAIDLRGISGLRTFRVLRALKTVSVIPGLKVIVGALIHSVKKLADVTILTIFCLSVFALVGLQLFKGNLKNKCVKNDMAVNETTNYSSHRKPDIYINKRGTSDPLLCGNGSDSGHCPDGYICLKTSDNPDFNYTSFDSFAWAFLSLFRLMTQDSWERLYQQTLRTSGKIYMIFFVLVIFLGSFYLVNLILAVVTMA
Chain of human Nav 1.8 (Q9Y5Y9 660-890 limits assumed): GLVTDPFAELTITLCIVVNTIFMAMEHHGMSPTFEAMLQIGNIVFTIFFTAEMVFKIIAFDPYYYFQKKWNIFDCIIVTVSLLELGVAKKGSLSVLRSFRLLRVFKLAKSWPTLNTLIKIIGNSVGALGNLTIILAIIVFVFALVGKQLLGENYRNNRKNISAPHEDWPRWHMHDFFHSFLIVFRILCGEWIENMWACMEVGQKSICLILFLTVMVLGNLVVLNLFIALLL
Chain of human Nav 1.8 (Q9Y5Y9 1148-1722 limits assumed): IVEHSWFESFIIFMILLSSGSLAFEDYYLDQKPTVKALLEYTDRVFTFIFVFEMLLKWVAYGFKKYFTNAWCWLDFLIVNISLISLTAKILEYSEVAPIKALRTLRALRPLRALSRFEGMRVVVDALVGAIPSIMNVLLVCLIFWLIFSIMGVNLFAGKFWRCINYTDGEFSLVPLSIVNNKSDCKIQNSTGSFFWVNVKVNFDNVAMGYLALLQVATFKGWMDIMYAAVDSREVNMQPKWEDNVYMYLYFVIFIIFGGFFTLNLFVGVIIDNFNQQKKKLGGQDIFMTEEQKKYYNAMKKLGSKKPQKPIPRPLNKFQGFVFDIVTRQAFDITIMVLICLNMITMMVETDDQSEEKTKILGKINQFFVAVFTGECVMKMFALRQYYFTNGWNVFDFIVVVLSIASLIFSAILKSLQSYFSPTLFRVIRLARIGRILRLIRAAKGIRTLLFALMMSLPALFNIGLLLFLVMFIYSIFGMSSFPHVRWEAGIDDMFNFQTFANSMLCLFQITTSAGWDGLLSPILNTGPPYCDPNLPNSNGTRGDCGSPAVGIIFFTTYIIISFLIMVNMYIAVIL

The first experiment addresses human Nav 1.8 (Homo sapiens, UniProt Q9Y5Y9). In words: E-VIPR assay detecting and measuring Nav inhibition properties. Type of experiment: cell-based. To be noted: HEK cells expressing a truncated form of human Nav 1.8; assay performed in the presence of human serum (compound numbers followed by "*"); read-out: measured IC50 value in the E-VIPR Assay. The procedure, abridged: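 Nav inhibition was read by E-VIPR: cells were electrically stimulated while coumarin/oxonol FRET emissions were recorded. Cells were HEK expressing a truncated human Nav 1.8 and co-transduced with KIR2.1, and were assayed in 25% final human serum.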
In the case of `Cc1c(F)ccc([C@H]2C[C@@](C)(C(F)(F)F)O[C@@H]2C(=O)Nc2ccnc(C(N)=O)c2)c1OCCO` (single isomer, unassigned) [Compound 36], the IC50 is at least 1000 nM.

Still in this experiment, the particulars now being: HEK cells expressing a truncated form of human Nav 1.8; compound numbers without "*" (not marked as run in the presence of human serum); read-out: measured IC50 value in the E-VIPR Assay.
Regarding `COc1c([C@@H]2[C@@H](C(=O)Nc3ccnc(C(N)=O)c3)O[C@@](C)(C(F)(F)F)[C@H]2C)ccc(OCC2CC2)c1F` (single isomer, unassigned) [Compound 143], the IC50 lay within 100 to 1000 nM. The same measure, in the same setting: then `C[C@]1(C(F)(F)F)C[C@@H](c2ccc(OC(F)(F)F)cc2Cl)[C@H](C(=O)Nc2ccnc(C(N)=O)c2)O1` (stereo in doubt) [Compound 151, rel-4-((2R,3S,5R)-3-(2-chloro-4-(trifluoromethoxy)phenyl)-5-methyl-5-(trifluoromethyl)tetrahydrofuran-2-carboxamido) picolinamide], with 10 to 100 nM; and `C[C@H]1[C@@H](c2ccc(F)c(F)c2OCCNCC(F)F)[C@H](C(=O)Nc2ccnc(C(N)=O)c2)O[C@@]1(C)C(F)(F)F` [Compound 112, 4-((2R,3S,4S,5R)-3-(2-(2-((2,2-difluoroethyl)amino)ethoxy)-3,4-difluorophenyl)-4,5-dimethyl-5-(trifluoromethyl)tetrahydrofuran-2-carboxamido)picolinamide], with below 10 nM.

For `COc1c([C@H]2[C@H](C(=O)Nc3ccnc(C(=O)N4C[C@H](F)[C@@H](N(C)C)C4)c3)O[C@@](C)(C(F)(F)F)[C@H]2C)ccc(F)c1F` [Compound 301, (2R,3S,4S,5R)-3-(3,4-difluoro-2-methoxyphenyl)-N-(2-((3S,4S)-3-(dimethylamino)-4-fluoropyrrolidine-1-carbonyl)pyridin-4-yl)-4,5-dimethyl-5-(trifluoromethyl)tetrahydrofuran-2-carboxamide], the 50% inhibitory concentration (IC50) is 10 to 100 nM. On the same count and under the same terms, then `C[C@H]1[C@@H](c2ccc(F)c(F)c2OCCN2CCC23COC3)[C@H](C(=O)Nc2ccnc(C(N)=O)c2)O[C@@]1(C)C(F)(F)F` [Compound 125, 4-((2R,3S,4S,5R)-3-(2-(2-(6-oxa-1-azaspiro[3.3]heptan-1-yl)ethoxy)-3,4-difluorophenyl)-4,5-dimethyl-5-(trifluoromethyl)tetrahydrofuran-2-carboxamido)picolinamide], with below 10 nM. The same measure, in the same setting: with `CNC(=O)c1cc(NC(=O)[C@@H]2O[C@@](C)(C(F)(F)F)[C@@H](C)[C@H]2c2ccc(F)c(F)c2OCCO)cc[n+]1[O-]` [Compound 84, 4-((2R,3S,4S,5R)-3-(3,4-difluoro-2-(2-hydroxyethoxy)phenyl)-4,5-dimethyl-5-(trifluoromethyl)tetrahydrofuran-2-carboxamido)-2-(methylcarbamoyl)pyridine 1-oxide] the figure was 10 to 100 nM; with `COc1c([C@H]2[C@H](C(=O)Nc3ccnc(C(=O)N4CCNC[C@H]4C)c3)O[C@@](C)(C(F)(F)F)[C@H]2C)ccc(F)c1F` [Compound 235, (2R,3S,4S,5R)-3-(3,4-difluoro-2-methoxyphenyl)-4,5-dimethyl-N-(2-((R)-2-methylpiperazine-1-carbonyl)pyridin-4-yl)-5-(trifluoromethyl)tetrahydrofuran-2-carboxamide], below 10 nM. Still for that read-out and setting: then `COc1c([C@H]2[C@H](C(=O)Nc3ccnc(C(=O)N4C[C@@H]5C[C@H]4CN5)c3)O[C@@](C)(C(F)(F)F)[C@H]2C)ccc(F)c1F` [Compound 240, (2R,3S,4S,5R)-N-(2-((1S,4S)-2,5-diazabicyclo[2.2.1]heptane-2-carbonyl)pyridin-4-yl)-3-(3,4-difluoro-2-methoxyphenyl)-4,5-dimethyl-5-(trifluoromethyl)tetrahydrofuran-2-carboxamide], with below 10 nM. Consider `C[C@H]1[C@@H](c2ccc(F)c(F)c2OCCN2CC3CCC2CO3)[C@H](C(=O)Nc2ccnc(C(N)=O)c2)O[C@@]1(C)C(F)(F)F` (stereo partly drawn) [Compound 124, 4-((2R,3S,4S,5R)-3-(2-(2-(2-oxa-5-azabicyclo[2.2.2]octan-5-yl)ethoxy)-3,4-difluorophenyl)-4,5-dimethyl-5-(trifluoromethyl)tetrahydrofuran-2-carboxamido)picolinamide], for which the IC50 is below 10 nM. On the same count and under the same terms, with `C[C@H]1[C@@H](c2ccc(F)c(F)c2OCCNC2COC2)[C@H](C(=O)Nc2ccnc(C(N)=O)c2)O[C@@]1(C)C(F)(F)F` [Compound 118, 4-((2R,3S,4S,5R)-3-(3,4-difluoro-2-(2-(oxetan-3-ylamino)ethoxy)phenyl)-4,5-dimethyl-5-(trifluoromethyl)tetrahydrofuran-2-carboxamido)picolinamide] the figure was 10 to 100 nM; with `C[C@H]1[C@@H](c2ccc(F)c(F)c2OCCCN2CC(F)C2)[C@H](C(=O)Nc2ccnc(C(N)=O)c2)O[C@@]1(C)C(F)(F)F` [Compound 133, 4-((2R,3S,4S,5R)-3-(3,4-difluoro-2-(3-(3-fluoroazetidin-1-yl)propoxy)phenyl)-4,5-dimethyl-5-(trifluoromethyl)tetrahydrofuran-2-carboxamido)picolinamide], below 10 nM; with `COc1c([C@H]2[C@H](C(=O)Nc3ccnc(C(=O)N4CC5CC(C4)N5)c3)O[C@@](C)(C(F)(F)F)[C@H]2C)ccc(F)c1F` [Compound 239, (2R,3S,4S,5R)-N-(2-(3,6-diazabicyclo[3.1.1]heptane-3-carbonyl)pyridin-4-yl)-3-(3,4-difluoro-2-methoxyphenyl)-4,5-dimethyl-5-(trifluoromethyl)tetrahydrofuran-2-carboxamide], below 10 nM. In the case of `COc1c([C@H]2[C@H](C(=O)Nc3ccnc(C(=O)N(C)[C@@H]4CCN(C)C4)c3)O[C@@](C)(C(F)(F)F)[C@H]2C)ccc(F)c1F` [Compound 269, 4-((2R,3S,4S,5R)-3-(3,4-difluoro-2-methoxyphenyl)-4,5-dimethyl-5-(trifluoromethyl)tetrahydrofuran-2-carboxamido)-N-methyl-N-((R)-1-methylpyrrolidin-3-yl)picolinamide], the IC50 was below 10 nM. In the case of `COc1c([C@H]2[C@H](C(=O)Nc3ccnc(C(N)=O)c3)O[C@@](C)(C(F)(F)F)[C@H]2C)cc(OCc2ccccc2)c(F)c1F` [Compound 177, 4-((2R,3S,4S,5R)-3-(5-(benzyloxy)-3,4-difluoro-2-methoxyphenyl)-4,5-dimethyl-5-(trifluoromethyl)tetrahydrofuran-2-carboxamido) picolinamide], the IC50 is below 10 nM. In the case of `C[C@H]1[C@@H](c2ccc(F)c(F)c2O[C@H]2C[C@@H](O)C2)[C@H](C(=O)Nc2ccc(F)c(C(N)=O)c2)O[C@@]1(C)C(F)(F)F` [Compound 202], the IC50 was below 10 nM. Same read-out and setting: then `COc1c([C@H]2[C@H](C(=O)Nc3ccnc(C(=O)N4CCN(C)[C@H](C)C4)c3)O[C@@](C)(C(F)(F)F)[C@H]2C)ccc(F)c1F` [Compound 288, (2R,3S,4S,5R)-3-(3,4-difluoro-2-methoxyphenyl)-N-(2-((R)-3,4-dimethylpiperazine-1-carbonyl)pyridin-4-yl)-4,5-dimethyl-5-(trifluoromethyl)tetrahydrofuran-2-carboxamide], with below 10 nM; and `C[C@H]1[C@@H](c2ccc(F)c(F)c2OCCN2CC3(CCOC3)C2)[C@H](C(=O)Nc2ccnc(C(N)=O)c2)O[C@@]1(C)C(F)(F)F` [Compound 126, 4-((2R,3S,4S,5R)-3-(2-(2-(6-oxa-2-azaspiro[3.4]octan-2-yl)ethoxy)-3,4-difluorophenyl)-4,5-dimethyl-5-(trifluoromethyl)tetrahydrofuran-2-carboxamido)picolinamide], with 10 to 100 nM; and `COCc1c(F)ccc([C@@H]2[C@@H](C(=O)Nc3ccnc(C(N)=O)c3)O[C@](C)(C(F)(F)F)[C@@H]2C)c1OC` (single isomer, unassigned) [Compound 139], with at least 1000 nM.

Regarding `COCc1c(F)ccc([C@H]2[C@H](C(=O)Nc3ccnc(C(N)=O)c3)O[C@@](C)(C(F)(F)F)[C@H]2C)c1OC` (single isomer, unassigned) [Compound 140], the IC50 was below 10 nM.

Usually IC50 stands for the midpoint of a concentration-inhibition curve.
